Measured values published in EP1137438B1, “FORMULATION WITH AN IMPROVED THERAPEUTIC RANGE, CONTAINING NUCLEOTIDE SYNTHESIS INHIBITORS” (Aventis Pharma Deutschland GmbH, priority 1998, dated 2000).

How the values were obtained:
[1] = tested on: Adjuvans induzierte Arthritis; experiment: Adjuvant-induced arthritis, modification after Perper (paw volume, arthritis index on day 18); assay type: in vivo, männliche Ratten eines Lewis-Stammes
Method: Adjuvans induzierte Arthritis, Modifikation nach Perper (Proc. Soc. exp. Biol. Med. 137, 506 (1971)) Als Versuchstiere dienten männliche Ratten eines Lewis-Stammes (Moellegard, Dänemark) mit einem Körpergewicht von 160 bis 210 g. Die Tiere erhielten am 1.
Tag eine subkutane Injektion in die Schwanzwurzel mit kompletten Freund'schen Adjuvans, enthaltend eine Mycobacterium butyricum Suspension in schwerem Paraffin Öl (Difco; 6 mg/kg in Paraffin Öl; Merck). Die Verbindungen N-(4-Trifluormethylphenyl)-2-cyan-3-hydroxy-crotonsäureamid und Colestyramin wurden in Carboxymethylcellulose (1 % in Wasser) suspendiert und oral verabreicht. Die Verbindungen wurden einmal täglich vom 1. bis zum 17. Versuchstag appliziert; dann erfolgte die Bestimmung des Pfotenvolumens und Arthritis-Index am 18. Tag.
Die Schwere der Erkrankung wurde durch Messung des Pfotenvolumens beider Hinterpfoten bestimmt. Die Messung erfolgte durch die Wasserverdrängungsmethode mit einem Plethysmometer 2060 (Rhema-Labortechnik, Hofheim, Deutschland). Ferner erfolgte die Bestimmung des Arthritis Index am 18. Tag nach der Injektion.
Bestimmung des Arthritis Index: 1. Ohren 0,5 Punkte für jedes Ohr an dem eine Rötung auftritt und Knoten gebildet werden 2. Nase 1 Punkt für Bindegewebsschwellung 3. Schwanz 1 Punkt für das Auftauchen von Knoten 4. Vorderpfoten 0,5 Punkte für jede Pfote an der wenigsten eine Entzündung an einem Gelenk auftritt 5. Hinterpfoten 1 Punkt für leichte Entzündung (Schwellung) 2 Punkte für eine mittelstarke Entzündung 3 Punkte für eine massive Entzündungsreaktion
Tiere einer Kontrollgruppe "Arthritis Kontrolle" erhielten am 1. Tag eine subkutane Injektion in die Schwanzwurzel mit kompletten Freund'schen Adjuvans und erhielten aber nur das Lösungsmittel (1 % Carboxymethylcellulose in Wasser). Pro Dosierung und in der Kontrollgruppe wurden jeweils 6 Tiere verwendet. Als weitere Kontrollgruppe "gesunde Kontrolle" wurden unbehandelte Tiere eingesetzt. Als Wirkungskriterium diente die Herabsetzung der Pfotenvolumenzunahme und die Abnahme des Arthritis Index gegenüber der unbehandelten Kontrollgruppe und das Gewicht der Tiere jeweils in Prozent und bezogen auf die Arthritis Kontrolle.
In der folgenden Tabelle wird N-(4-Trifluormethylphenyl)-2-cyan-3-hydroxycrotonsäureamid als Verbindung 1 bezeichnet. Colestyramin wurde 4 Stunden später als Verbindung 1 appliziert. Tabelle 1 zeigt die erhaltenen Ergebnisse. Tabelle 1

[2] = Blood levels and duration of action of Verbindung 1 after later administration of Colestyramin; assay type: in vivo; conditions: after later administration of Colestyramin (interruption of enterohepatic circulation); result in words
Text: Die erfindungsgemäße Zubereitung kann auch Kompositionen oder Kombinationspackungen umfassen, in denen die Bestandteile nebeneinander gestellt sind und deshalb gleichzeitig, getrennt oder zeitlich abgestuft an ein und denselben menschlichen oder tierischen Körper anwendbar sind. Bevorzugt ist die zeitlich abgestufte Applikation von der Verbindung der Formel I und/oder II vor der Applikation der Verbindung, die die enterohepatische Zirkulation der Verbindung der Formel I oder II im wesentlichen verhindert. Hierzu wird beispielsweise zuerst N-(4-Trifluormethylphenyl)-2-cyan-3-hydroxy-crotonsäureamid (im folgenden als Verbindung 1 bezeichnet) appliziert. Colestyramin, das die enterohepatische Zirkulation der Verbindung 1 im wesentlichen verhindert, wird zeitlich versetzt, also z.B. 2 Stunden oder 4 Stunden nach der Gabe der Verbindung 1, appliziert. Durch diese zeitlich versetzte Gabe der Verbindung 1 und Colestyramin wird die Verbindung 1 zunächst ungehindert aus dem Verdauungstrakt resorbiert.
Nach der Gabe von Colestyramin, welches systemisch nicht resorbiert wird, wird die über die Galle ausgeschiedene Verbindung 1 an Colestyramin gebunden und kann daher nicht wieder reabsorbiert werden; dadurch wird eine Unterbrechung der enterohepatischen Zirkulation bewirkt.

[3] = Tabelle 1, Verbindung 1 25 mg/kg oral (combination: + 1000 mg/kg Colestyramin 4 h later), once daily day 1-17, read day 18
[4] = Tabelle 1, Verbindung 1 2,5 mg/kg oral (combination: + 1000 mg/kg Colestyramin 4 h later), once daily day 1-17, read day 18
[5] = Tabelle 1, Verbindung 1 7,5 mg/kg oral (combination: + 1000 mg/kg Colestyramin 4 h later), once daily day 1-17, read day 18
[6] = Tabelle 2 (Beispiel 2), Colestyramin 1000, Verbindung 1 25, combination 25 + 1000 mg/kg (Colestyramin 4 h later)
[7] = Tabelle 3 (Beispiel 3), Colestyramin 1000, Verbindung 1 25, combination 25 + 1000 mg/kg (Colestyramin 4 h later)

SMILES: CC(O)=C(C#N)C(=O)Nc1ccc(C(F)(F)F)cc1 [Verbindung 1, N-(4-Trifluormethylphenyl)-2-cyan-3-hydroxy-crotonsäureamid]
- Arthritis Index (%) [1, 3]: -100%
- Pfotenvolumen (%) [1, 3]: -92%
- Arthritis Index (%) [1, 4]: -77%
- Pfotenvolumen (%) [1, 4]: -63%
- Arthritis Index (%) [1, 5]: -92%
- Pfotenvolumen (%) [1, 5]: -83%
- Arthritis Index (%) [1, 6]: -100%
- Pfotenvolumen (%) [1, 6]: -92%
- Arthritis Index (%) [1, 7]: -100%
- Pfotenvolumen (%) [1, 7]: -110%
- Wirksamkeit im pathologischen Tiermodell (Adjuvans Arthritis) ([1]; about 2,5 mg/kg/Tag Verbindung 1, effect of added Colestyramin, result in words): nicht vermindert
- Wirkungsdauer und Blutspiegel der Verbindung 1 [2]: drastisch reduziert
